Assay results reported in BigSolDB 2.1.

Settings: in water

O=S(=O)([O-])c1ccc(Nc2nc(Nc3ccc(/C=C/c4ccc(Nc5nc(Nc6ccc(S(=O)(=O)[O-])cc6)nc(N6CCOCC6)n5)cc4S(=O)(=O)[O-])c(S(=O)(=O)[O-])c3)nc(N3CCOCC3)n2)cc1.[Na+].[Na+].[Na+].[Na+]
Settings | solubility (mole fraction)
273.15 K | 0.00029
278.45 K | 0.000399
283.35 K | 0.000545
288.75 K | 0.000757
293.25 K | 0.00099
298.75 K | 0.00137
303.15 K | 0.00179
307.55 K | 0.00219
310.75 K | 0.00264
313.95 K | 0.00319
